32 compounds from patent US8754079B2, “Cycloalkyl containing thienopyrimidines for pharmaceutical compositions” (Boehringer Ingelheim International GmbH, priority 2010, dated 2014) can be followed below.

Where “and” joins values, the source holds several entries; their conditions need not be identical. Equal entries are not always repeated.

The target of this assay is T1, MNK2 (Homo sapiens, UniProt Q9HBH9).
T1 construct: the open reading frames of human Mnk1 and Mnk2a were amplified from cDNA; made in house; host or cells: E. coli BL21
T1 sequence (Q9HBH9 whole entry): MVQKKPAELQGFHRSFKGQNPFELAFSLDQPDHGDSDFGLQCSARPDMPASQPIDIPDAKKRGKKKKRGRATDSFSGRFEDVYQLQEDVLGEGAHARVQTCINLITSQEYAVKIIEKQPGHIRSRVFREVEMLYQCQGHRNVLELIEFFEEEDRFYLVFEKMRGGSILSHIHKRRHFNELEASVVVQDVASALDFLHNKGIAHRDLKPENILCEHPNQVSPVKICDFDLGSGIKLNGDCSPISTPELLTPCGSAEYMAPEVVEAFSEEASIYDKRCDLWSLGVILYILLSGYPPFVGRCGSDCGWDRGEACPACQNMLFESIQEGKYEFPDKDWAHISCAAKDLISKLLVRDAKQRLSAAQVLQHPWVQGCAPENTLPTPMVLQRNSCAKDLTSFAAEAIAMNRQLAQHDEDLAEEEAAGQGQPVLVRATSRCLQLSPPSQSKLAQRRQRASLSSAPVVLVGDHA
Description: Mnk2a in vitro kinase assay (indirect fluorescence polarization). It is filed as biochemical. The conditions noted are these: pre-activated GST-Mnk2a 2.5 nM, 20 μM ATP, 30 μM substrate peptide. As for the experimental part: Inhibitory potency of compounds against Mnk1, Mnk2a and other kinases was assessed with assays based on a format known to those skilled in the art as the indirect (competitive) fluorescence polarization. The assay detection system comprises a small fluorophore-labeled phospho-peptide (termed ligand) bound to a phospho-specific antibody. The product generated by the kinase reaction competes with the ligand for antibody binding. Based on the larger molecular volume of the bound ligand, which results in a lower rotation rate in solution, its emitted light has a higher degree of polarization than the one from the free ligand.
Example 2a. Mnk1 and Mnk2a in vitro kinase assay
As a source of enzyme, human Mnk1 and human Mnk2a were expressed as GST fusion proteins in E. coli, purified to >80% homogeneity by glutathione affinity chromatography and activated in vitro with pre-activated ERK2. In brief, the open reading frames of human Mnk1 and Mnk2a were amplified from cDNA using the forward/reverse primer pairs
(utilized restriction sites underlined), respectively, and cloned into the BamHI and SalI sites of the vector pGEX-4T1 (Amersham, Sweden, cat. no. 27-4580-01). These constructs allow prokaryotic expression of Mnk1 or Mnk2a as fusion protein with a N-terminal glutathione S-transferase (GST) tag, referred to as GST-Mnk1 or GSTMnk2a. The following expression and purification procedure was identical for GSTMnk1 and GST-Mnk2a, referring in general to GST-Mnk, when not distinguishing between the two isoforms. Expression of GST-Mnk was in E. coli BL21 (Merck Biosciences, Germany, cat. no. 69449). Cells were grown in LB-Bouillon (Merck, Germany, cat. no. 1.10285) supplemented with 100 μg/ml ampicillin (Sigma, Germany, cat. no. A9518) at 37° C. When the culture had reached a density corresponding to an A600 of 0.8, an equal volume of ice cold LB/ampicillin was added, the culture transferred to 25° C. and induced for 4 h with 1 mM isopropyl thiogalactoside (IPTG, Roth, Germany, cat. no. 2316.4). Cells harvested by centrifugation were resuspended in 10 ml lysis buffer (50 mM tris(hydroxymethyl)aminomethane hydrochloride (Tris/HCl, Sigma, Germany, cat. no. T5941) pH 7.5, 300 mM sodium chloride (NaCl, Sigma, Germany, cat. no. S7653), 5% (w/v) glycerol (Sigma, Germany, cat. no. G5516), 3 mM DTT dithiotreitol (DTT, Sigma, Germany, cat. no. D9779)) per gram wet weight cell pellet. Lysates were prepared by disruption of cells with a sonifier and subsequent clearing by centrifugation at 38000 g for 45 min at 4° C.
The lysate was applied to a GSTPrep FF 16/10 column (Amersham, Sweden, cat. no. 17-5234-01) equilibrated with lysis buffer. Removal of unbound material was with 3 column volumes (CV) lysis buffer. Elution was with 2 CV of elution buffer (50 mM Tris/HCl pH 7.5, 300 mM NaCl, 5% (w/v) glycerol, 20 mM glutathione (Sigma, Germany, cat. no. G4251)). Peak fractions were pooled and the protein transferred into storage buffer (50 mM Tris/HCl pH 7.5, 200 mM NaCl, 0.1 mM ethylene glycolbis(2-aminoethylether)-N,N,N′,N′-tetraacetic acid (EGTA, Aldrich, Germany, cat. no. 23, 453-2), 1 mM DTT, 10% (w/v) glycerol, 0.5 M sucrose (Sigma, Germany, cat. no. S0389) by gel filtration on a PD10 desalting column (Amersham, Sweden, cat. no. 17-0851-01). Aliquots were shock frozen in liquid nitrogen and stored at −80° C.
Activation of Mnk1 and Mnk2a was at a concentration of 2.5 μM of either purified GST-Mnk1 or GST-Mnk2a by incubation with 150 nM pre-activated NHis-ERK2 (see ERK2 assay for preparation) and 50 μM adenosine triphosphate (ATP, Sigma, cat. no. A2699) in a buffer comprising 20 mM N-(2-hydroxyethyl)piperazine-N′-(2-ethanesulfonic acid) (HEPES, Fluka, Germany, cat. no 54459)/potassium hydroxide (KOH, Roth, Germany, cat. no 6751.1) pH 7.4, 10 mM magnesium chloride (MgCl2, Sigma, Germany, cat. no. M2670), 0.25 mM DTT, 0.05% (w/v) polyoxyethylene 20 stearylether (Brij 78, Sigma, Germany, cat. no. P4019) (HMDB buffer) for 45 min at 30° C. […]
For orientation: Fluorescence polarisation rises when a labelled molecule tumbles more slowly, as on binding a larger partner.

The term IC50 denotes the concentration that gives 50% inhibition. With “4-(4-fluoro-2-(cis-3-hydroxycyclopentyloxy)phenylamino)-5-methylthieno[2,3-d]pyrimidine-6-carboxamide and 4-(4-fluoro-2-(trans-3-hydroxycyclopentyloxy)phenylamino)-5-methylthieno[2,3-d]pyrimidine-6-carboxamide [Example 242]”, the IC50 is 5 nM and 4 nM.

For the compound `Cc1c(C(=O)NC2CC2N)sc2ncnc(Nc3ccc(F)cc3OC3CCCC(O)C3)c12` (mixture of isomers) [Example 59], the IC50 turned out to be 34 nM.

As for `Cc1c(C(=O)NCC2CNCCO2)sc2ncnc(Nc3ccc(F)cc3OC3CCCC(O)C3)c12` (mixture of isomers) [Example 67], the half-maximal inhibitory concentration (IC50) was found to be 18 nM.

`Cc1c(C(=O)NCC2COCCN2)sc2ncnc(Nc3ccc(F)cc3OC3CCCC(O)C3)c12` (mixture of isomers) [Example 68] gave a half-maximal inhibitory concentration (IC50) of 31 nM.

In turn, `Cc1c(C(=O)NCC(C)O)sc2ncnc(Nc3ccc(F)cc3OC3CCCC(O)C3)c12` (mixture of isomers) [Example 73] returned an IC50 of 43 nM. The IC50 values of the last two compounds are within 1.5-fold of each other.

`COC1CCCC(Oc2cc(F)ccc2Nc2ncnc3sc(C(=O)NCC4CNCCO4)c(C)c23)C1` (mixture of isomers) [Example 83] gave a half-maximal inhibitory concentration (IC50) of 53 nM. This IC50 and that of the compound before are within 1.5-fold of each other.

Compound `COC1CCCC(Oc2cc(F)ccc2Nc2ncnc3sc(C(=O)NCC4CNCCO4)c(C)c23)C1` (mixture of isomers) [Example 98] yielded an IC50 of 17 nM.

`COC1CCCC(Oc2ncccc2Nc2ncnc3sc(C(=O)NC4CC4N)c(C)c23)C1` (mixture of isomers) [Example 111] registered an IC50 of 36 nM. Compared with the last compound, the IC50 is about 2.1-fold higher.

On to `COC1CCCC(Oc2ncccc2Nc2ncnc3sc(C(=O)NCC4CNCCO4)c(C)c23)C1` (mixture of isomers) [Example 119], for which half-maximal inhibition (IC50) required 11 nM.

On to `COC1CCCC(Oc2ncccc2Nc2ncnc3sc(C(=O)NC4CC4N)c(C)c23)C1` (mixture of isomers) [Example 132], for which half-maximal inhibition (IC50) required 96 nM.

`COC1CCCC(Oc2ncccc2Nc2ncnc3sc(C(=O)NCC4COCCN4)c(C)c23)C1` (mixture of isomers) [Example 141] returned an IC50 of 89 nM. The IC50 values of the last two compounds are within 1.5-fold of each other.

In the case of `COC1CCCC(Oc2ncccc2Nc2ncnc3sc(C(=O)NCC(C)O)c(C)c23)C1` (mixture of isomers) [Example 146], half-maximal inhibition (IC50) was put at 105 nM. This IC50 and that of the compound before are within 1.5-fold of each other.

`Cc1c(C(N)=O)sc2ncnc(Nc3ccc(F)cc3O[C@@H]3CCCC[C@H]3N(C)S(C)(=O)=O)c12` (racemic) [Example 13, Racemic 4-(4-Fluoro-2-(trans-2-(N-methylmethylsulfonamido)cyclohexyloxy)phenylamino)-5-methylthieno[2,3-d]pyrimidine-6-carboxamide] returned an IC50 of 440 nM.

With `CC(=O)N(C)[C@@H]1CCCC[C@H]1Oc1cc(F)ccc1Nc1ncnc2sc(C(N)=O)c(C)c12` (racemic) [Example 14, Racemic 4-(4-fluoro-2-(trans-2-(N-methylacetamido)cyclohexyloxy)phenylamino)-5-methylthieno[2,3-d]pyrimidine-6-carboxamide], the IC50 came out at 1600 nM. Against the preceding compound, the IC50 is about 3.6-fold higher.

Compound `CO[C@@H]1CCCC[C@H]1Oc1cc(F)ccc1Nc1ncnc2sc(C(N)=O)c(C)c12` (racemic) [Example 50, Racemic 4-[4-Fluoro-2-(trans-2-methoxy-cyclohexyloxy)-phenylamino]-5-methyl-thieno[2,3-d]pyrimidine-6-carboxylic acid amide] came in with an IC50 of 10 nM.

As to `CO[C@H]1CCCC[C@H]1Oc1cc(F)ccc1Nc1ncnc2sc(C(N)=O)c(C)c12` (racemic) [Example 55, Racemic 4-[4-Fluoro-2-(cis-2-methoxy-cyclohexyloxy)-phenylamino]-5-methyl-thieno[2,3-d]pyrimidine-6-carboxylic acid amide], the IC50 is 59 nM.

`Cc1c(C(N)=O)sc2ncnc(Nc3ccc(F)cc3O[C@@H]3CCCC[C@@H]3O)c12` (racemic) [Example 56, Racemic 4-[4-Fluoro-2-((cis)-2-hydroxy-cyclohexyloxy)-phenylamino]-5-methyl-thieno[2,3-d]pyrimidine-6-carboxylic acid amide] yielded an IC50 of 33 nM.

As to `Cc1c(C(N)=O)sc2ncnc(Nc3ccc(F)cc3O[C@@H]3CCC[C@H](O)C3)c12` (racemic) [Example 57, Racemic 4-[4-Fluoro-2-((cis)-3-hydroxy-cyclohexyloxy)-phenylamino]-5-methyl-thieno[2,3-d]pyrimidine-6-carboxylic acid amide], 7 nM corresponded to half-maximal inhibition (IC50).

Regarding `Cc1c(C(N)=O)sc2ncnc(Nc3ccc(F)cc3O[C@@H]3CCC[C@@H](O)C3)c12` (racemic) [Example 58, Racemic 4-[4-Fluoro-2-((trans)-3-hydroxy-cyclohexyloxy)-phenylamino]-5-methyl-thieno[2,3-d]pyrimidine-6-carboxylic acid amide], the IC50 is 6 nM. The IC50 values of the last two compounds are within 1.5-fold of each other.

On to `Cc1c(C(=O)NCC#CCN)sc2ncnc(Nc3ccc(F)cc3O[C@@H]3CCC[C@@H](O)C3)c12` (racemic) [Example 60], for which 14 nM corresponded to half-maximal inhibition (IC50). This IC50 lies about 2.3-fold higher than the previous one.

In turn, `Cc1c(C(=O)NCCCCO)sc2ncnc(Nc3ccc(F)cc3O[C@@H]3CCC[C@@H](O)C3)c12` (racemic) [Example 61] returned an IC50 of 26 nM.

In turn, `Cc1c(C(=O)NCc2cnco2)sc2ncnc(Nc3ccc(F)cc3O[C@@H]3CCC[C@@H](O)C3)c12` (racemic) [Example 62] gave an IC50 of 17 nM. This IC50 is about 1.5-fold lower than that of the compound before.

As to `Cc1c(C(=O)NCC#N)sc2ncnc(Nc3ccc(F)cc3O[C@@H]3CCC[C@@H](O)C3)c12` (racemic) [Example 63], the IC50 came to 14 nM. The IC50 values of the last two compounds are within 1.5-fold of each other.

As to `CNC(=O)CNC(=O)c1sc2ncnc(Nc3ccc(F)cc3O[C@@H]3CCC[C@@H](O)C3)c2c1C` (racemic) [Example 64], the IC50 came to 21 nM.

Consider `Cc1c(C(=O)NCC#CCN(C)C)sc2ncnc(Nc3ccc(F)cc3O[C@@H]3CCC[C@@H](O)C3)c12` (racemic) [Example 65], for which the IC50 amounted to 16 nM.

On to `Cc1c(C(=O)NCCCN2CCOCC2)sc2ncnc(Nc3ccc(F)cc3O[C@@H]3CCC[C@@H](O)C3)c12` (racemic) [Example 66], for which the IC50 is 26 nM.

The compound `Cc1c(C(=O)N[C@H]2CC[C@H](O)CC2)sc2ncnc(Nc3ccc(F)cc3O[C@@H]3CCC[C@@H](O)C3)c12` (racemic) [Example 69] returned an IC50 of 34 nM.

As for `Cc1c(C(=O)NCCN2CCCCC2)sc2ncnc(Nc3ccc(F)cc3O[C@@H]3CCC[C@@H](O)C3)c12` (racemic) [Example 72], inhibition was half-maximal at 23 nM (IC50). The IC50 values of the last two compounds are within 1.5-fold of each other.

For `Cc1c(C(=O)NCCCO)sc2ncnc(Nc3ccc(F)cc3O[C@@H]3CCC[C@@H](O)C3)c12` (racemic) [Example 74], the IC50 was 22 nM.

The compound `Cc1c(C(=O)NCc2cn(C)cn2)sc2ncnc(Nc3ccc(F)cc3O[C@@H]3CCC[C@@H](O)C3)c12` (racemic) [Example 76] came in with a half-maximal inhibitory concentration (IC50) of 13 nM. This IC50 lies about 1.7-fold lower than the previous one.

The compound `CCNC(=O)c1sc2ncnc(Nc3ccc(F)cc3O[C@@H]3CCC[C@@H](O)C3)c2c1C` (racemic) [Example 78] had an IC50 of 25 nM.

`CO[C@@H]1CCC[C@@H](Oc2cc(F)ccc2Nc2ncnc3sc(C(N)=O)c(C)c23)C1` (racemic) [Example 79, Racemic 4-[4-Fluoro-2-((trans)-3-methoxy-cyclohexyloxy)-phenylamino]-5-methyl-thieno[2,3-d]pyrimidine-6-carboxylic acid amide] returned a half-maximal inhibitory concentration (IC50) of 15 nM.
